Measured values taken from patent US11261186B2, “Biaryl derivative as GPR120 agonist” (LG CHEM, LTD., priority 2014, dated 2022).

Molecular target: T1, hGPR120 (Homo sapiens, UniProt Q5NUL3)
T1 construct: expressed in transfected cells; host or cells: CHO-K1
T1 sequence (Q5NUL3 1-361): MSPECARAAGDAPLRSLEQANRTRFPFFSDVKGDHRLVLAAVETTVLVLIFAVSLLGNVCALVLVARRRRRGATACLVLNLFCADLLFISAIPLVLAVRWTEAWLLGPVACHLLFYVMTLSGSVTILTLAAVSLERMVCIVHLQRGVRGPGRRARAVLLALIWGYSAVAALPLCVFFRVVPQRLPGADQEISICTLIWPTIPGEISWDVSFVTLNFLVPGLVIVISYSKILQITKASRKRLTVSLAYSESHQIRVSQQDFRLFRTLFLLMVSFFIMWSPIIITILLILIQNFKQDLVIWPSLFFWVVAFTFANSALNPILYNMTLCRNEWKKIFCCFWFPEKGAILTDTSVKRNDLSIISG
Assay: Measurement of Activity of GPR120 Agonist (Cell-Based Assay), Calcium 5 dye fluorescence
Conditions: CHO-K1 cells expressing Ga16 and hGPR120
How it was run: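 Fluorescence increase (Ex 485 nm, Em 525 nm) after agonist addition was calculated as relative percent of the 1% DMSO-only signal. Cells were CHO-K1 stably carrying Gα16 plus human GPR120, dye-loaded for 1 h after overnight (18 h) culture.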

Structure (SMILES)	EC50 [nM]
CN(CCCC(=O)O)c1c(F)cc(-c2ccc(Cl)c(OC3CCC3)n2)cc1F [Example 531, 4-{[4-(5-chloro-6-cyclobutoxy-pyridin-2-yl)-2,6-difluoro-phenyl]-methyl-amino}-butyric acid]	200 to 2000
O=C(O)CC1CCN(c2c(F)cc(-c3cccc(OC4CCC4)c3)cc2F)CC1 [Example 300, 2-[1-[4-[3-(cyclobutoxy)phenyl]-2,6-difluoro-phenyl]-4-piperidyl]acetic acid]	200 to 2000
CC(CCCC(=O)O)c1ccc(-c2cccc(OC3CCC3)n2)cc1 (stereo not drawn) [Example 40, 5-[4-(6-cyclobutoxy-2-pyridyl)-phenyl]hexanoic acid]	< 200
CCCSc1ncccc1-c1cc(F)c(OCc2cc(O)no2)c(F)c1 [Example 66, 5-[[2,6-difluoro-4-(2-propylsulfanyl-3-pyridyl)phenoxy]methyl]isoxazol-3-ol]	< 200
CC(C)Sc1ncccc1-c1ccc2cc(OCCCC(=O)O)ccc2c1 [Example 5, 4-[6-(2-isopropylsulfanyl-pyridin-3-yl)-naphthalen-2-yloxy]-butyric acid]	200 to 2000
Cc1cc(OC2CCC2)nc(-c2cc(F)c(OCC3CC3C(=O)O)c(F)c2)n1 (stereo not drawn) [Example 542, 2-[4-(4-cyclobutoxy-6-methyl-pyrimidin-2-yl)-2,6-difluoro-phenoxymethyl]-cyclopropanecarboxylic acid]	< 200
O=C(O)CCCCc1c(F)cc(-c2cccc(OC3CCC3)n2)cc1F [Example 32, 5-[4-(6-cyclobutoxy-2-pyridyl)-2,6-difluoro-phenyl]pentanoic acid]	< 200
O=C(O)CCC1CCc2cc(-c3cccnc3OC3CCCC3)ccc2S1 (stereo not drawn) [Example 271, 3-[6-(2-cyclopentoxy-pyridin-3-yl)-thiochroman-2-yl]-propionic acid]	< 200
CC(CCCC(=O)O)c1c(F)cc(-c2cc(F)cc(OC3CCC3)c2)cc1F (stereo not drawn) [Example 411, 5-(5′-cyclobutoxy-3,5,3′-trifluoro-biphenyl-4-yl)-hexanoic acid]	< 200
O=C(O)CC1CCN(c2c(F)cc(-c3cncc(OC4CCCC4)n3)cc2F)CC1 [Example 344, 2-[1-[4-[6-(cyclopentoxy)pyrazin-2-yl]-2,6-difluoro-phenyl]-4-piperidyl]acetic acid]	< 200
Cc1nc(-c2cc(F)c(N3CCC(CC(=O)O)CC3)c(F)c2)nc(OC2CCC2)c1C [Example 384, 2-[1-[4-[4-(cyclobutoxy)-5,6-dimethyl-pyrimidin-2-yl]-2,6-difluoro-phenyl]-4-piperidyl]acetic acid]	2000 to 20000
N#Cc1ccc2c(ccn2-c2cc(F)c(OCCCC(=O)O)c(F)c2)c1 [Example 469, 4-[4-(5-cyanoindol-1-yl)-2,6-difluoro-phenoxy]butanoic acid]	2000 to 20000
Cc1c(OC2CCC2)cccc1-c1cc(F)c(N2CCC(CC(=O)O)CC2)c(F)c1 [Example 310, 2-[1-[4-[3-(cyclobutoxy)-2-methyl-phenyl]-2,6-difluoro-phenyl]-4-piperidyl]acetic acid]	2000 to 20000

Results, then the compound that gave them:

EC50 [nM]	Structure (SMILES)
200 to 2000	COc1cncc(-c2cc(F)c(N3CCC(CC(=O)O)CC3)c(F)c2)n1 [Example 340, 2-[1-[2,6-difluoro-4-(6-methoxypyrazin-2-yl)phenyl]-4-piperidyl]acetic acid]
2000 to 20000	Cc1cc(Oc2ccc(C(F)(F)F)cc2)nc(-c2cc(F)c(N3CCC(CC(=O)O)CC3)c(F)c2)n1 [Example 612, 2-[1-[2,6-difluoro-4-[4-methyl-6-[4-(trifluoromethyl)phenoxy]pyrimidin-2-yl]phenyl]-4-piperidyl]acetic acid]
< 200	CC(C)Sc1ncccc1-c1cc(F)c(N2CC[C@H](CC(=O)O)C2)c(F)c1 [Example 134, 2-[(3R)-1-[2,6-difluoro-4-(2-isopropylsulfanyl-3-pyridyl)phenyl]pyrrolidin-3-yl]acetic acid]
< 200	O=C(O)C[C@H]1CCN(c2c(F)cc(-c3cccc(OCC4CC4)n3)cc2F)C1 [Example 438, {(R)-1-[4-(6-cyclopropylmethoxy-pyridin-2-yl)-2,6-difluoro-phenyl]-pyrrolidin-3-yl}-acetic acid]
< 200	Oc1cc(COc2c(F)cc(-c3cccc(OCC4CC4)n3)cc2F)on1 [Example 72, 5-[[4-[6-(cyclopropylmethoxy)-2-pyridyl]-2,6-difluoro-phenoxy]methyl]isoxazol-3-ol]
< 200	O=C(O)CCCCNc1c(F)cc(-c2cccc(OCC3CC3)n2)cc1F [Example 98, 5-[4-[6-(cyclopropylmethoxy)-2-pyridyl]-2,6-difluoro-anilino]pentanoic acid]
< 200	O=C(O)CC1CCN(c2c(F)cc(-c3nccc(Oc4ccccc4)n3)cc2F)CC1 [Example 510, 2-[1-[4-[4-phenoxy-pyrimidin-2-yl]-2,6-difluoro-phenyl]-4-piperidyl]acetic acid]
< 200	O=C(O)CC1CCN(c2c(F)cc(-c3nccc(Oc4ccc(F)c(F)c4)n3)cc2F)CC1 [Example 517, 2-[1-[4-[4-(3,4-difluorophenoxy)pyrimidin-2-yl]-2,6-difluoro-phenyl]-4-piperidyl]acetic acid]
< 200	O=C(O)CCCCc1c(F)cc(-c2cccnc2SC2CCCC2)cc1F [Example 36, 5-[4-(2-cyclopentylsulfanyl-3-pyridyl)-2,6-difluoro-phenyl]pentanoic acid]
< 200	CC(C)Oc1cccc(-c2cc(F)c(N3CCC(CC(=O)O)CC3)c(F)c2)n1 [Example 296, 2-[1-[2,6-difluoro-4-(6-isopropoxy-2-pyridyl)phenyl]-4-piperidyl]acetic acid]
< 200	CCCSc1ncccc1-c1cc(F)c(CCCCC(=O)O)c(F)c1 [Example 31, 5-[2,6-difluoro-4-(2-propylsulfanyl-3-pyridyl)phenyl]pentanoic acid]
